“And” between values parts separate entries of the source, which are not always exact repeats. Equal entries are not always repeated.
Experiments:
[1] = test system: Madin-Darby Canine Kidney (MDCK) cells; assay: MDCK in vitro permeability assay, wild type MDCK cells with no inhibitor (A→B); assay type: in vitro ADME; settings: no Pgp inhibitor, apical to basolateral
Description: (§1) Compounds were tested for permeability in an MDCK permeability assay. This assay measures the ability of compounds to cross a layer of Madin-Darby Canine Kidney (MDCK) cells from the apical to basolateral side (A→B). This measurement is predictive of the ability of compounds to be absorbed in the gut following oral dosing, an essential characteristic of an orally administered small molecule integrin inhibitor drug.
(§2) The assay is run in two formats. One uses wild type MDCK cells with no inhibitor. This method works well in determining the passive permeability of compounds with low efflux by P-glyocprotein (Pgp), and was used to assess permeability of a Reference Compound having the chemical formula shown below.
(§3) Cell Culture and Maintenance: • Cell stock cultures (MDCK or MDCK MDR1) are maintained in MEM+10% FBS+1% NEAA, grown in 75 cm^2 tissue culture treated flasks and split (passed) 2 times weekly to maintain desired confluence. • For maintenance passage: trypsinized cells are routinely distributed into new flasks at a standard passage ratio of 1:20.
(§4) Seeding assay plates: MDCK assay plates are seeded with MDCK or MDCK MCR1 cells 3-4 days prior to running the assay. 24-well plates are seeded at a cell density of 0.88×10^5/well in a 400 μL apical chamber volume (2.2×10^5/mL) with a […] volume of growth medium to the 24-well basal chamber. […]

[2] = as above; assay type: in vitro ADME, Canine; settings: dog, no Pgp inhibitor, apical to basolateral
Description: as §1, §2, §3, §4

integrin αvβ6 = integrin αvβ6 (Homo sapiens, UniProt P06756+P18564); assay: Fluorescence polarization assay for αvβ6 binding (competition with fluorescein-labeled peptide GRGDLGRL); settings: fluorescence polarization assay of Example 12; 10 nM integrin αvβ6, 3 nM labeled peptide; read-out: avb6. (IC50)
Description: Fluorescence Polarization (FP) assays were used to measure compound activity through binding competition with the fluorescein-labeled peptide GRGDLGRL. In the assay, 10 nM of integrin αvβ6 was incubated with the test compound in 2 mM manganese chloride, 0.1 mM calcium chloride, 20 mM HEPES buffer at pH 7.3, 150 mM sodium chloride, 0.01% Triton X-100, 2% DMSO, and 3 nM of the fluorescein-labeled peptide. The assays were run in 384-well plates. For both assay versions, the integrin protein was pre-incubated with the test compounds for 15 minutes at 22° C. before the fluorescein-labeled peptide was added. After the fluorescein-labeled peptide was added, the assay was incubated at 22° C. for 1 hour and fluorescence polarization was measured. IC50 values were determined by nonlinear regression, 4-parameter curve fitting (FIG. 1).

Chain of integrin αvβ6 (P06756 31-992 limits assumed): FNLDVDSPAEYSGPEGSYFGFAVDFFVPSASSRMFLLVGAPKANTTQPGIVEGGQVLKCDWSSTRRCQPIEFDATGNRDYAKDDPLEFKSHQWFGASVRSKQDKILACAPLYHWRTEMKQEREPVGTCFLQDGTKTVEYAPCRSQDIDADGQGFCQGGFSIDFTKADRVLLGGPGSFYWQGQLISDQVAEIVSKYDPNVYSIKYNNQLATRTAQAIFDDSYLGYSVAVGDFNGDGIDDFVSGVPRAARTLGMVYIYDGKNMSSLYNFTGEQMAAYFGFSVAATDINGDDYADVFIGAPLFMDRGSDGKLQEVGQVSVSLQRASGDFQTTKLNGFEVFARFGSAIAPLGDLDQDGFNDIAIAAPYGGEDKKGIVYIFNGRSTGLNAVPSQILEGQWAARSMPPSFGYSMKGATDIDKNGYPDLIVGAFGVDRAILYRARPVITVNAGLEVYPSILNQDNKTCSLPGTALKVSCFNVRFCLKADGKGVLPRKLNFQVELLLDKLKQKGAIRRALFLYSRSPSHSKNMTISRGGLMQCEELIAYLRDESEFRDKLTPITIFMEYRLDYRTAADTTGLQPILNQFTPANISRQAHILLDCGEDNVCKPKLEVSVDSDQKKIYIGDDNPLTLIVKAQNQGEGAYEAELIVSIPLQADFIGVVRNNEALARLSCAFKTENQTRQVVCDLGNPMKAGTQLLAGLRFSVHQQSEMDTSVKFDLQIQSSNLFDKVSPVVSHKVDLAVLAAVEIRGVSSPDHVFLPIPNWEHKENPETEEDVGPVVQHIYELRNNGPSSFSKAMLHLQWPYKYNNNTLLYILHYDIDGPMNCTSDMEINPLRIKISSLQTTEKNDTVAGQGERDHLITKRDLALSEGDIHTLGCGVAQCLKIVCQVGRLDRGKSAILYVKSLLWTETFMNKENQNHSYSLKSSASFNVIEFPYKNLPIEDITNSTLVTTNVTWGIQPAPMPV
Chain of integrin αvβ6 (P18564 22-709 limits assumed): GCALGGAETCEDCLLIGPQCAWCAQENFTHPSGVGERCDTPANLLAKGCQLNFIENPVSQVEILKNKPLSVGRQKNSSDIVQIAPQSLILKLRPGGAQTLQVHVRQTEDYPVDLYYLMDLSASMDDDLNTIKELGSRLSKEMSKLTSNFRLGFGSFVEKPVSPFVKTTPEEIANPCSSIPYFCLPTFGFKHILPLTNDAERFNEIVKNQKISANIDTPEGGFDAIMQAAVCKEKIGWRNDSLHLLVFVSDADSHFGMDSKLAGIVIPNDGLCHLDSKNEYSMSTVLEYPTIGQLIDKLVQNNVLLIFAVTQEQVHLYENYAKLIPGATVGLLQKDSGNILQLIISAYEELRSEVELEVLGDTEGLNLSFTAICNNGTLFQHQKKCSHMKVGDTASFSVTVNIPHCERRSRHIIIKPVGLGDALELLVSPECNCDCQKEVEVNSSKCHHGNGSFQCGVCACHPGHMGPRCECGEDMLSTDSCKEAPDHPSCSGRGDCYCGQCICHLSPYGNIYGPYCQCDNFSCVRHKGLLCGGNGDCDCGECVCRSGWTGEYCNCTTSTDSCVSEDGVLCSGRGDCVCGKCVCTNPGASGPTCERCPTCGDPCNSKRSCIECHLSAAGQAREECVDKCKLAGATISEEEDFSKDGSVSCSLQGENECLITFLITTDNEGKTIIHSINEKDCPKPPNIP

O=C(O)CN1CCC(C(=O)N2CCC(c3ccc4c(n3)NCCC4)CC2)CC1 [Reference Compound]
MDCK (A−>B) [1]: less than 0.23
Papp A→B at 90 min, 5 μM [2]: < 0.23 ×10⁻⁶ cm/s
IC50 (integrin αvβ6): ~0.0965 µM and 0.0965 µM

Reference: US20230219949A1, “INHIBITORS OF (ALPHA-V)(BETA-6) INTEGRIN” (priority 2018, published 2023)
